Test results published in patent publication US8871812B2, “Therapeutic regimen comprising PEG-interferon, ribavirin and VX-950 for the treatment of hepatitis” (priority 2008, dated 2014).

Test: C208 Phase 2 study: pharmacokinetics of TVR in plasma
Format: in vivo, human
Details: for Cmin, mean ± SD: Week 8
Procedure: Assessment of virologic breakthrough (defined as a >1-log 10 increase in HCV RNA from nadir, or HCV RNA>100 IU/mL in subjects whose HCV RNA had previously become undetectable [<10 IU/mL] at all assessment timepoints) was performed. Pharmacokinetics and viral dynamics were assessed by pre-defined serial measurements of plasma concentrations of TVR and HCV RNA, respectively, from baseline to Week 12. Pharmacokinetic analysis of TVR was performed using non-compartmental methods for data from full pharmacokinetic profiles. A viral dynamics model, which included fixed effects for treatment and random effects for clearance, drug effect, drop and death rate in infected cells with unstructured variance covariance matrix, was also constructed. Safety and tolerability were assessed by monitoring adverse events (AEs), laboratory abnormalities and cardiovascular parameters.

SMILES: CCC[C@H](NC(=O)[C@@H]1[C@H]2CCC[C@H]2CN1C(=O)[C@@H](NC(=O)[C@@H](NC(=O)c1cnccn1)C1CCCCC1)C(C)(C)C)C(=O)C(=O)NC1CC1 [VX-950]
- Cmin, mean ± SD (TVR 750 mg q8h + Peg-IFN alfa-2a + RBV (n = 40)): 2624 ± 507 ng/mL
- Cmin, mean ± SD (TVR 750 mg q8h + Peg-IFN alfa-2b + RBV (n = 42)): 2569 ± 453 ng/mL
- Cmin, mean ± SD (TVR 1125 mg q12h + Peg-IFN alfa-2a + RBV (n = 40)): 2134 ± 620 ng/mL
- Cmin, mean ± SD (TVR 1125 mg q12h + Peg-IFN alfa-2b + RBV (n = 39)): 2321 ± 384 ng/mL
- telaprevir Cmax (in vivo): higher
- telaprevir Cmin (on average, q12h versus q8h dosing schedules): lower
